The values below come from PubChem BioAssay (NCI).

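Dose response: 5 concentrations. Exposure: 48 h. Format: 96-well plates. Endpoint: linear interpolation; highest concentration if not reached. TGI marks complete inhibition of growth.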 Where only a bound is given, the exact number is not on record here.

Test systems include CAKI-1 renal; HT29 colon; M14 melanoma; MALME-3M melanoma; OVCAR-5 ovarian; SK-MEL-28 melanoma; SNB-75 CNS.
Common to all, as to assay: inhibition of tumour cell growth, NCI panel, 48 h

For the compound `CCOC(=O)NC(=O)c1cn(C2OC(COC(=O)CCCCCCCCC(=O)OCC3OC(n4cc(C(=O)NC(=O)OCC)c(=O)[nH]c4=O)C4OC(C)(C)OC34)C3OC(C)(C)OC32)c(=O)[nH]c1=O` (stereo not given), the TGI with CAKI-1 renal, with HT29 colon, in the test with M14 melanoma, in the test on MALME-3M melanoma, with OVCAR-5 ovarian and in the test with SK-MEL-28 melanoma was greater than 100 µM in each case. This compound registered a TGI with SNB-75 CNS greater than 100 µM.
Take `Fc1ccc2c(c1)cc1ccc3cccc4ccc2c1c34`: the TGI in the test with CAKI-1 renal, in the test on HT29 colon, in the test with M14 melanoma, with MALME-3M melanoma, with OVCAR-5 ovarian and in the test on SK-MEL-28 melanoma was greater than 100 µM throughout. For the same compound, the TGI in the test with SNB-75 CNS is greater than 100 µM.
For `COc1ccc2c(c1OC)C(C=C(c1ccccc1)c1ccccc1)CN(C)C2` (stereo not given), the TGI in the test with CAKI-1 renal amounted to 45.3 µM; in the test with HT29 colon it was 42.7 µM; in the test with M14 melanoma, 31.3 µM; with MALME-3M melanoma, 38.1 µM; in the test with OVCAR-5 ovarian, 61.6 µM; in the test on SK-MEL-28 melanoma, 57.9 µM. Further, in the test on SNB-75 CNS, the TGI was greater than 100 µM.
Take `CC(C)(C)C1CCC(=O)C(C(O)CC2CC(=O)N(c3ccccc3)C(=O)C2)C1` (stereo not given): the TGI with CAKI-1 renal, in the test with HT29 colon, in the test with M14 melanoma, with MALME-3M melanoma, in the test with OVCAR-5 ovarian and in the test on SK-MEL-28 melanoma was greater than 100 µM each time. Also, the TGI in the test on SNB-75 CNS is greater than 100 µM.
`CCCCCN(CCCCC)C(=O)[C@H](CCC(=O)OCc1ccccc1)NC(=O)c1cc2ccccc2[nH]1`: the TGI with CAKI-1 renal, in the test on HT29 colon, in the test on M14 melanoma, with MALME-3M melanoma, in the test on OVCAR-5 ovarian and in the test with SK-MEL-28 melanoma was greater than 100 µM in each case. In addition, the TGI in the test with SNB-75 CNS is greater than 100 µM.
Turning to `O=C(COC(=O)c1cccc2c(=O)c3ccccc3[nH]c12)Nc1ccc(S(=O)(=O)Nc2ncccn2)cc1`, the TGI with CAKI-1 renal, in the test on HT29 colon, in the test on M14 melanoma, in the test on MALME-3M melanoma, in the test on OVCAR-5 ovarian and with SK-MEL-28 melanoma was greater than 100 µM throughout. Also, the TGI in the test on SNB-75 CNS is 92.7 µM.
For `O=C(CC1SC(=Nc2ccccc2Cl)NC1=O)Nc1ccc(Cl)cc1` (stereo not given), the TGI in the test with CAKI-1 renal, in the test on HT29 colon, with M14 melanoma, in the test with MALME-3M melanoma, in the test with OVCAR-5 ovarian and in the test with SK-MEL-28 melanoma was greater than 100 µM in each case.
`[N-]=[N+]=NC1C2CC3CC(C2)CC1C3` (stereo not given): the TGI in the test with CAKI-1 renal, in the test with HT29 colon, in the test with M14 melanoma, in the test on MALME-3M melanoma, in the test with OVCAR-5 ovarian and with SK-MEL-28 melanoma was greater than 100 µM each time. For the same compound, the TGI in the test with SNB-75 CNS is greater than 100 µM.
As for `COc1cc2ccc3c4cc(OC)c(OC(C)C)cc4c[n+](C)c3c2cc1OC`, the TGI in the test on CAKI-1 renal, in the test with HT29 colon, in the test on M14 melanoma, in the test with MALME-3M melanoma, with OVCAR-5 ovarian and in the test with SK-MEL-28 melanoma was greater than 100 µM throughout. In addition, the TGI in the test on SNB-75 CNS was greater than 100 µM.
As for `CCN(CC)/[N+]([O-])=N/OCC(C)O` (stereo not given), the TGI in the test with CAKI-1 renal, in the test on HT29 colon, in the test on M14 melanoma, in the test with OVCAR-5 ovarian, in the test with SK-MEL-28 melanoma and in the test with SNB-75 CNS was greater than 100 µM in each case.
Turning to `CN=C(N)NC`, the TGI in the test on HT29 colon, with M14 melanoma, with MALME-3M melanoma, in the test with OVCAR-5 ovarian, in the test on SK-MEL-28 melanoma and in the test with SNB-75 CNS was greater than 100 µM each time.
Regarding `CC(=O)Oc1cc(Cl)c(OC(C)=O)c2c(OC(C)=O)c(C)c(O[Si](C)(C)C(C)(C)C)cc12`, the figures for the TGI in the test with CAKI-1 renal, with M14 melanoma and with SK-MEL-28 melanoma were 30.7 µM, 19.6 µM and 11.9 µM, respectively.
`C/C(=N\NS(=O)(=O)c1c(C)cc(C)cc1C)c1ccc[n+]([O-])n1`: the TGI stood at 18.1 µM in the test with CAKI-1 renal; 36 µM in the test with HT29 colon; 20.7 µM in the test with M14 melanoma; 56.1 µM with OVCAR-5 ovarian; 27.6 µM in the test on SK-MEL-28 melanoma; 41.2 µM with SNB-75 CNS.
As to `CCOc1ncnc2ccc(Cl)c(I)c12`, the TGI in the test with CAKI-1 renal, with HT29 colon, in the test with M14 melanoma, with MALME-3M melanoma, in the test on OVCAR-5 ovarian and in the test with SK-MEL-28 melanoma was greater than 100 µM throughout.
Regarding `Cc1nc(-n2nc(-c3ccccc3)cc2-c2ccccc2)sc1C(=O)/C=C/c1ccc(Cl)cc1`, the TGI with CAKI-1 renal is 62.7 µM; in the test on HT29 colon it was 29.6 µM; in the test with MALME-3M melanoma, 52.5 µM; in the test on OVCAR-5 ovarian, greater than 100 µM; in the test on SK-MEL-28 melanoma, 33.6 µM; in the test with SNB-75 CNS it was greater than 100 µM.
